Measured values published in patent US20230295200A1 (REGENTS OF THE UNIVERSITY OF MICHIGAN, priority 2022, published 2023).

Key:
STAT5A = biological target: T1, STAT5A (Homo sapiens, UniProt P42229); assay: Fluorescence polarization (FP) binding assay, STAT5A; conditions: FP competition, 5 nM fluorescein-labeled tracer, 200 nM protein, PBS pH7.4
T1 sequence (P42229 1-794): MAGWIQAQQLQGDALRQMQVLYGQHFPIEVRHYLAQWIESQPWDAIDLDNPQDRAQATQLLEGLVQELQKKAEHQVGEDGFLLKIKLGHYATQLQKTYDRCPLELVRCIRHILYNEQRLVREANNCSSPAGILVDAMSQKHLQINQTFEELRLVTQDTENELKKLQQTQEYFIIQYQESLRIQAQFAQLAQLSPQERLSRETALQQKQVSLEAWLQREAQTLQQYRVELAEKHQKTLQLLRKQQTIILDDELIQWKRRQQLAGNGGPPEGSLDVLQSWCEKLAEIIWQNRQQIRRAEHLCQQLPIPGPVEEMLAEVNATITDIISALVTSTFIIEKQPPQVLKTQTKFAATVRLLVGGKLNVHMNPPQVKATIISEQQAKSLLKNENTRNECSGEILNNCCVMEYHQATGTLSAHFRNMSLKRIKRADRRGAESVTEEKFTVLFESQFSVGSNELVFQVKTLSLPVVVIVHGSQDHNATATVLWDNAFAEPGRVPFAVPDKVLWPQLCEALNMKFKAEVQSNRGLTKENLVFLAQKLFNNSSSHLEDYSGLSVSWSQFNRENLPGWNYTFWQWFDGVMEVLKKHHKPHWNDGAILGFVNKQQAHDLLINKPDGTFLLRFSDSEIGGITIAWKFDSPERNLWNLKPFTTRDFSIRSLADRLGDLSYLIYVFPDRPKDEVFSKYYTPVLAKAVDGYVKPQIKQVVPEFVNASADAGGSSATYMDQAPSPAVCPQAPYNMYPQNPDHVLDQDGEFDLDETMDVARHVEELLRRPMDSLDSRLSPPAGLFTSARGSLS
In short: (§1)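 Competitive FP read-out with 5 nM fluorescein-labeled tracer and 200 nM STAT5 or STAT6 protein in PBS pH 7.4 containing 0.01% BGG, 0.01% Tween-20 and 2 mM DTT. Plates were shaken 15 min, then equilibrated 1 h at room temperature; inhibition constants came from nonlinear curve fitting.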

STAT6 protein = biological target: T2, STAT6 protein (Homo sapiens, UniProt P42226); assay: Fluorescence polarization (FP) binding assay, STAT6; conditions: FP competition, 5 nM fluorescein-labeled tracer, 200 nM protein, PBS pH7.4; read-out: Binding STAT6
T2 sequence (P42226 1-847): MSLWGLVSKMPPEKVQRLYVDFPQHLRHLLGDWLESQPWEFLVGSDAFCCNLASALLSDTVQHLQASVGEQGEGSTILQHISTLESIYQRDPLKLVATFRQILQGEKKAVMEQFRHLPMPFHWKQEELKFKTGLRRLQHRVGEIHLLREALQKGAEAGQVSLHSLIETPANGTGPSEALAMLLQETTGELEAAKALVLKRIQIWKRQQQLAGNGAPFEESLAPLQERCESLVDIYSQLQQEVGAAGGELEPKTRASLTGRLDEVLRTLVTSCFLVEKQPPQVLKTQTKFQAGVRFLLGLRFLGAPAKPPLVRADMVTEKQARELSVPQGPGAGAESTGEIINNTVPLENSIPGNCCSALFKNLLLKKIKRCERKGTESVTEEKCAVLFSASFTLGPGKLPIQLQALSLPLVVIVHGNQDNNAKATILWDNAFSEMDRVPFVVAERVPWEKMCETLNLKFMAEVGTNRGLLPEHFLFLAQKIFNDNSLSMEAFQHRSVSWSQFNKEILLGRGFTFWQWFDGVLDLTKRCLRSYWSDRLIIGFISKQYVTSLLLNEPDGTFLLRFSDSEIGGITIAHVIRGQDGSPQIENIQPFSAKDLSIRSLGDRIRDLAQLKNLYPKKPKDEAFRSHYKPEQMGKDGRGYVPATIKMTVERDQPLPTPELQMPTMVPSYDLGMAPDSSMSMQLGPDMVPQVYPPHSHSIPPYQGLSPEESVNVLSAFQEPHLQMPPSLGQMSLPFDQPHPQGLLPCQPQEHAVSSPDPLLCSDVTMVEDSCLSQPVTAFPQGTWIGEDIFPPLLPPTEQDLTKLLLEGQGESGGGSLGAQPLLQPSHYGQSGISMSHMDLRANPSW
In short: as §1

Ki (STAT5A) | Ki (STAT6 protein) | SMILES
0.1 to 1 µM | 1000 to 10000 nM | CC(C)(C)[C@H](NC(=O)c1cc2cc(C(F)(F)P(=O)(O)O)ccc2s1)C(=O)N1Cc2ccccc2[C@H]1C(=O)Nc1ncc(-c2ccccc2)s1 [Compound 200, ((2-(((S)-3,3-dimethyl-1-oxo-1-((S)-1-((5-phenylthiazol-2-yl)carbamoyl)isoindolin-2-yl)butan-2-yl)carbamoyl)benzo[b]thiophen-5-yl)difluoromethyl)phosphonic acid]
1 to 10 µM | 100 to 1000 nM | CC(C)(C)[C@H](NC(=O)c1cc2cc(C(F)(F)P(=O)(O)O)ccc2s1)C(=O)N1CCC[C@H]1C(=O)N1CCCOC(c2ccccc2)C1 (stereo partly drawn) [Compound 124, ((2-(((2S)-3,3-dimethyl-1-oxo-1-((2S)-2-(2-phenyl-1,4-oxazepane-4-carbonyl)pyrrolidin-1-yl)butan-2-yl)carbamoyl)benzo[b]thiophen-5-yl)difluoromethyl)phosphonic acid]
> 10 µM | 1000 to 10000 nM | CC(=O)N1CCN(C(=O)[C@@H](NC(=O)c2cc3cc(C(F)(F)P(=O)(O)O)ccc3s2)C(C)(C)C)[C@H](C(=O)N2CC[C@@H](c3ccccc3)C2)C1 [Compound 177, ((2-(((S)-1-((S)-4-acetyl-2-((S)-3-phenylpyrrolidine-1-carbonyl)piperazin-1-yl)-3,3-dimethyl-1-oxobutan-2-yl)carbamoyl)benzo[b]thiophen-5-yl)difluoromethyl)phosphonic acid]
> 10 µM | > 10000 nM | CC(C)(C)[C@H](NC(=O)/C=C/c1ccc(C(F)(F)P(=O)(O)O)cc1)C(=O)N1CCC[C@H]1c1ncc(Cc2ccccc2)s1 [Compound 26, ((4-((E)-3-(((S)-1-((S)-2-(5-benzylthiazol-2-yl)pyrrolidin-1-yl)-3,3-dimethyl-1-oxobutan-2-yl)amino)-3-oxoprop-1-en-1-yl)phenyl)difluoromethyl)phosphonic acid]
0.1 to 1 µM | 1000 to 10000 nM | CC(C)(C)[C@H](NC(=O)c1cc2cc(C(F)(F)P(=O)(O)O)ccc2s1)C(=O)N1CCCCC[C@H]1C(=O)Nc1ncc(-c2ccccc2)s1 [Compound 188, ((2-(((S)-3,3-dimethyl-1-oxo-1-((S)-2-((5-phenylthiazol-2-yl)carbamoyl)azepan-1-yl)butan-2-yl)carbamoyl)benzo[b]thiophen-5-yl)difluoromethyl)phosphonic acid]

The remaining lines, values behind:

SMILES | Ki (STAT5A) | Ki (STAT6 protein)
CC(C)(C)[C@H](NC(=O)c1cc2cc(C(F)(F)P(=O)(O)O)ccc2s1)C(=O)N1CCC[C@H]1C(=O)NC1(c2ccccc2)CC1 [Compound 71, ((2-(((S)-3,3-dimethyl-1-oxo-1-((S)-2-((1-phenylcyclopropyl)carbamoyl)pyrrolidin-1-yl)butan-2-yl)carbamoyl)benzo[b]thiophen-5-yl)difluoromethyl)phosphonic acid] | > 10 µM | 1000 to 10000 nM
CCOC(=O)C1CCN(C(=O)[C@@H]2CCCN2C(=O)[C@@H](NC(=O)c2cc3cc(C(F)(F)P(=O)(O)O)ccc3s2)C(C)(C)C)CC1c1ccccc1 (stereo partly drawn) [Compound 115, ((2-(((2S)-1-((2S)-2-(4-(ethoxycarbonyl)-3-phenylpiperidine-1-carbonyl)pyrrolidin-1-yl)-3,3-dimethyl-1-oxobutan-2-yl)carbamoyl)benzo[b]thiophen-5-yl)difluoromethyl)phosphonic acid] | > 10 µM | 1000 to 10000 nM
CC(=O)N1CC[C@H]2CC[C@@H](C(=O)NC(c3ccccc3)c3ccccc3)N2C(=O)[C@@H](NC(=O)c2cc3cc(C(F)(F)P(=O)(O)O)ccc3[nH]2)C1 [Compound 3, ((2-(((5S,8S,10aR)-3-acetyl-8-(benzhydrylcarbamoyl)-6-oxodecahydropyrrolo[1,2-a][1,5]diazocin-5-yl)carbamoyl)-1H-indol-5-yl)difluoromethyl)phosphonic acid] | > 10 µM | 1000 to 10000 nM
CC(=O)N1CC[C@H]2CC[C@@H](C(=O)Nc3ccc(I)cc3)N2C(=O)[C@@H](NC(=O)/C=C/c2ccc(C(F)(F)P(=O)(O)O)cc2)C1 [Compound 6, ((4-((E)-3-(((5S,8S,10aR)-3-acetyl-8-((4-iodophenyl)carbamoyl)-6-oxodecahydropyrrolo[1,2-a][1,5]diazocin-5-yl)amino)-3-oxoprop-1-en-1-yl)phenyl)difluoromethyl)phosphonic acid] | > 10 µM | 1000 to 10000 nM
CC(C)(C)[C@H](NC(=O)c1cc2cc(C(F)(F)P(=O)(O)O)ccc2s1)C(=O)N1CCC[C@H]1C(=O)N1CCOC(c2cccc(Cl)c2)C1 (stereo partly drawn) [Compound 103, ((2-(((2S)-1-((2S)-2-(2-(3-chlorophenyl)morpholine-4-carbonyl)pyrrolidin-1-yl)-3,3-dimethyl-1-oxobutan-2-yl)carbamoyl)benzo[b]thiophen-5-yl)difluoromethyl)phosphonic acid] | 1 to 10 µM | 1000 to 10000 nM
CC(C)(C)[C@H](NC(=O)c1cc2cc(C(F)(F)P(=O)(O)O)ccc2s1)C(=O)N1CCCCC[C@H]1C(=O)N1CCO[C@H](c2ccccc2)C1 [Compound 183, ((2-(((S)-3,3-dimethyl-1-oxo-1-((S)-2-((R)-2-phenylmorpholine-4-carbonyl)azepan-1-yl)butan-2-yl)carbamoyl)benzo[b]thiophen-5-yl)difluoromethyl)phosphonic acid] | 1 to 10 µM | 100 to 1000 nM
CC(C)(C)[C@H](NC(=O)c1cc2cc(C(F)(F)P(=O)(O)O)ccc2[nH]1)C(=O)N1CCC[C@H]1C(=O)NC(c1ccccc1)c1ccccc1 [Compound 14, ((2-(((S)-1-((S)-2-(benzhydrylcarbamoyl)pyrrolidin-1-yl)-3,3-dimethyl-1-oxobutan-2-yl)carbamoyl)-1H-indol-5-yl)difluoromethyl)phosphonic acid] | > 10 µM | 1000 to 10000 nM
